The test system of this series is CCRIS mutagenicity, Ames/micronucleus/aberration tests. Nature of the series: CCRIS mutagenicity studies.
The mark [1] stands for this setting: Test System: AMES SALMONELLA TYPHIMURIUM, Strain/Indicator: TA98, Metabolic Activation: NONE, Method: PREINCUBATION
The mark [2] stands for this setting: Test System: AMES SALMONELLA TYPHIMURIUM, Strain/Indicator: TA100, Metabolic Activation: NONE, Method: PREINCUBATION
Setting [3] is: Test System: AMES SALMONELLA TYPHIMURIUM, Strain/Indicator: TA1535, Metabolic Activation: NONE, Method: PREINCUBATION
Setting [4] is: Test System: AMES SALMONELLA TYPHIMURIUM, Strain/Indicator: TA1537, Metabolic Activation: NONE, Method: PREINCUBATION

Calls of active or inactive are those of the source. No rule for the calls is given here.

With `COc1cccc(N)c1`, the mutagenic call is “active; positive” (End Point: IN VITRO CHROMOSOMAL ABERRATIONS, Test System: CHINESE HAMSTER OVARY CELLS, Metabolic Activation: NONE); “inactive; negative” (End Point: IN VITRO CHROMOSOMAL ABERRATIONS, Test System: CHINESE HAMSTER OVARY CELLS, Metabolic Activation: RAT, LIVER, S-9, AROCLOR 1254); “inactive; negative” (Test System: AMES SALMONELLA TYPHIMURIUM, Strain/Indicator: TA98, Metabolic Activation: HAMSTER, LIVER, S-9, AROCLOR 1254, Method: PREINCUBATION); “inactive; negative” under setting [1]; “inactive; negative” (Test System: AMES SALMONELLA TYPHIMURIUM, Strain/Indicator: TA98, Metabolic Activation: RAT, LIVER, S-9, AROCLOR 1254, Method: PREINCUBATION); “inactive; negative” (Test System: AMES SALMONELLA TYPHIMURIUM, Strain/Indicator: TA100, Metabolic Activation: HAMSTER, LIVER, S-9, AROCLOR 1254, Method: PREINCUBATION). In addition, the mutagenic call reads like this: under setting [2], “inactive; negative”; (Test System: AMES SALMONELLA TYPHIMURIUM, Strain/Indicator: TA100, Metabolic Activation: RAT, LIVER, S-9, AROCLOR 1254, Method: PREINCUBATION) “inactive; negative”; (Test System: AMES SALMONELLA TYPHIMURIUM, Strain/Indicator: TA102, Metabolic Activation: NONE, Method: STANDARD PLATE) “inactive; negative”; (Test System: AMES SALMONELLA TYPHIMURIUM, Strain/Indicator: TA1535, Metabolic Activation: HAMSTER, LIVER, S-9, AROCLOR 1254, Method: PREINCUBATION) “inactive; negative”; under setting [3], “inactive; negative”; (Test System: AMES SALMONELLA TYPHIMURIUM, Strain/Indicator: TA1535, Metabolic Activation: RAT, LIVER, S-9, AROCLOR 1254, Method: PREINCUBATION) “inactive; negative”. In addition, the mutagenic call was “inactive; negative” (Test System: AMES SALMONELLA TYPHIMURIUM, Strain/Indicator: TA1537, Metabolic Activation: HAMSTER, LIVER, S-9, AROCLOR 1254, Method: PREINCUBATION); “inactive; negative” under setting [4]; “inactive; negative” (Test System: AMES SALMONELLA TYPHIMURIUM, Strain/Indicator: TA1537, Metabolic Activation: RAT, LIVER, S-9, AROCLOR 1254, Method: PREINCUBATION); “inactive; negative” (Test System: AMES SALMONELLA TYPHIMURIUM, Strain/Indicator: TA2638, Metabolic Activation: NONE, Method: STANDARD PLATE); “inactive; negative” (Test System: E. COLI, Strain/Indicator: WP2 (PKM101), Metabolic Activation: NONE, Method: STANDARD PLATE); “inactive; negative” (Test System: E. COLI, Strain/Indicator: WP2 UVRA (PKM101), Metabolic Activation: NONE, Method: STANDARD PLATE).

Turning to `NC=O`, the mutagenic call by setting is: (End Point: In vivo micronucleus, Test System: Peripheral blood erythrocytes, Species: Mouse, Strain/Sex: B6C3F1/ Male and Female, Route: Oral) “inactive; negative”; (Test System: AMES SALMONELLA TYPHIMURIUM, Strain/Indicator: TA98, Metabolic Activation: HAMSTER, LIVER, S-9, AROCLOR 1254 (10%), Method: PREINCUBATION) “inactive; negative”; under setting [1], “inactive; negative”; (Test System: AMES SALMONELLA TYPHIMURIUM, Strain/Indicator: TA98, Metabolic Activation: RAT LIVER S-9, PHENOBARBITAL AND BETA-NAPHTHOFLAVONE, Method: PREINCUBATION) “inactive; negative”; (Test System: AMES SALMONELLA TYPHIMURIUM, Strain/Indicator: TA98, Metabolic Activation: RAT, LIVER, S-9, AROCLOR 1254 (10%), Method: PREINCUBATION) “inactive; negative”; (Test System: AMES SALMONELLA TYPHIMURIUM, Strain/Indicator: TA100, Metabolic Activation: HAMSTER, LIVER, S-9, AROCLOR 1254 (10%), Method: PREINCUBATION) “inactive; negative”. Moreover, the mutagenic call is “inactive; negative” under setting [2]; “inactive; negative” (Test System: AMES SALMONELLA TYPHIMURIUM, Strain/Indicator: TA100, Metabolic Activation: RAT LIVER S-9, PHENOBARBITAL AND BETA-NAPHTHOFLAVONE, Method: PREINCUBATION); “inactive; negative” (Test System: AMES SALMONELLA TYPHIMURIUM, Strain/Indicator: TA100, Metabolic Activation: RAT, LIVER, S-9, AROCLOR 1254 (10%), Method: PREINCUBATION); “inactive; negative” (Test System: AMES SALMONELLA TYPHIMURIUM, Strain/Indicator: TA1535, Metabolic Activation: HAMSTER, LIVER, S-9, AROCLOR 1254 (10%), Method: PREINCUBATION); “inactive; negative” under setting [3]; “inactive; negative” (Test System: AMES SALMONELLA TYPHIMURIUM, Strain/Indicator: TA1535, Metabolic Activation: RAT LIVER S-9, PHENOBARBITAL AND BETA-NAPHTHOFLAVONE, Method: PREINCUBATION). Moreover, the mutagenic call reads like this: (Test System: AMES SALMONELLA TYPHIMURIUM, Strain/Indicator: TA1535, Metabolic Activation: RAT, LIVER, S-9, AROCLOR 1254 (10%), Method: PREINCUBATION) “inactive; negative”; (Test System: AMES SALMONELLA TYPHIMURIUM, Strain/Indicator: TA1537, Metabolic Activation: HAMSTER, LIVER, S-9, AROCLOR 1254 (10%), Method: PREINCUBATION) “inactive; negative”; under setting [4], “inactive; negative”; (Test System: AMES SALMONELLA TYPHIMURIUM, Strain/Indicator: TA1537, Metabolic Activation: RAT LIVER S-9, PHENOBARBITAL AND BETA-NAPHTHOFLAVONE, Method: PREINCUBATION) “inactive; negative”; (Test System: AMES SALMONELLA TYPHIMURIUM, Strain/Indicator: TA1537, Metabolic Activation: RAT, LIVER, S-9, AROCLOR 1254 (10%), Method: PREINCUBATION) “inactive; negative”; (Test System: Ames Salmonella typhimurium, Strain/Indicator: TA98, Metabolic Activation: None, Method: Preincubation) “inactive; negative”. Further, the mutagenic call is “inactive; negative” (Test System: Ames Salmonella typhimurium, Strain/Indicator: TA98, Metabolic Activation: Rat, Liver, S-9, Aroclor 1254 (10%), Method: Preincubation); “inactive; negative” (Test System: Ames Salmonella typhimurium, Strain/Indicator: TA100, Metabolic Activation: None, Method: Preincubation); “inactive; negative” (Test System: Ames Salmonella typhimurium, Strain/Indicator: TA100, Metabolic Activation: Rat, Liver, S-9, Aroclor 1254 (10%), Method: Preincubation); “inactive; negative” (Test System: E. coli, Strain/Indicator: WP urvA pKM101, Metabolic Activation: None, Method: Preincubation); “inactive; negative” (Test System: E. coli, Strain/Indicator: WP urvA pKM101, Metabolic Activation: Rat, Liver, S-9, Aroclor 1254 (10%), Method: Preincubation); “inactive; negative” (Test System: E.COLI, Strain/Indicator: WP2UVRA/PKM101, Metabolic Activation: NONE, Method: PREINCUBATION). Also, the mutagenic call (Test System: E.COLI, Strain/Indicator: WP2UVRA/PKM101, Metabolic Activation: RAT LIVER S-9, PHENOBARBITAL AND BETA-NAPHTHOFLAVONE, Method: PREINCUBATION) is “inactive; negative”.

The values above are taken from PubChem BioAssay AID1259407 (Chemical Carcinogenesis Research Information System (CCRIS), 2018).
